Laboratory results: patent US11286263B2, “Macrocyclic fluorine substituted indole derivatives” (The Broad Institute, Inc., priority 2017, dated 2022)
Several values for one entry are separate records, joined by “and”; a condition that tells them apart may be missing. Equal values may be shown once. Read-outs that look alike come from different tables or passages of the source.

Legend:
[1] = molecular target: BCL-2 (Homo sapiens (Human), UniProt P10415); assay: Protein-protein interaction assay BCL-2/Bad BH3 peptide (BCL-2 assay), TR-FRET; type: binding; conditions: BCL-2/Bad BH3 peptide TR-FRET; median
Sequence of BCL-2 (P10415 1-211): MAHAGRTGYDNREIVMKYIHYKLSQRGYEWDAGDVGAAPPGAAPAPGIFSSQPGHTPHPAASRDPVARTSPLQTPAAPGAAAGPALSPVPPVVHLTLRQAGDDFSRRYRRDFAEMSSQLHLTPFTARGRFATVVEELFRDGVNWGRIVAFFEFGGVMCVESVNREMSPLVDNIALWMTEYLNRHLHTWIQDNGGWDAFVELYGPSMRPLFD
Protocol: Assay 3 Protein-Protein Interaction assay: BCL-2/Bad BH3 Peptide (BCL-2 Assay)
The dose-dependent inhibition by the compounds described in this invention of the interaction between BCL-2 and the BH3 domain of Bad (both human) was determined using a steady state binding competition assay with time-resolved fluorescence energy transfer (TR-FRET) readout. For that purpose BCL-2 (amino acids 1-211, C-terminal fused to a hexahistidine (6× His) tag (SEQ ID 5) and a synthetic Bad BH3-derived peptide of sequence Biotin-PEG2-PEG2-NLWAAQRYGRELRR-Nle-SDEFVDSFKK-amide (SEQ ID 4) served as protein receptor and tracer ligand respectively. The recombinant BCL-2 protein (expressed in E. coli) was purchased from BPS Bioscience (San Diego, Calif., USA). The Bad BH3-derived peptide can be obtained from e.g. Biosyntan (Berlin, Germany).
In the assay 11 different concentrations of each compound (0.1 nM, 0.33 nM, 1.1 nM, 3.8 nM, 13 nM, 44 nM, 0.15 μM, 0.51 μM, 1.7 μM, 5.9 μM and 20 μM) were typically measured as duplicates in the same microtiter plate. For that, 100-fold concentrated DMSO solutions were prepared by serial dilutions (1:3.4) of a 2 mM stock solution in a clear, 384-well microtiter plate (Greiner Bio-One, Frickenhausen, Germany). From there, 50 nl were transferred in a dark test plate (Greiner Bio-One, Frickenhausen, Germany). The assay was initiated by addition of 2 μl of a 2,5-fold concentrated His-BCL-2 solution (usually for a 1 nM end concentration in 5 μl reaction volume) in aqueous assay buffer [50 mM Tris/HCl pH 7, 100 mM sodium chloride (NaCl), 50 mM potassium fluoride (KF), 0.005% Tween-20, 2 mM DTT, 0.1% bovine gamma globulin (BGG)] to the compounds in the assay plate. This was followed by a 10-minute incubation step at 22° C. for pre-equilibration of the putative complex between His-BCL-2 and the compounds. After that, 3 μl of a 1.67-fold concentrated solution (in assay buffer) consisting of Bad BH3-derived peptide (1 nM end concentration) and TR-FRET detection reagents [1.67 nM anti-His-Eu cryptate and 1.67 nM streptavidin-XL665 (both from Cisbio Bioassays, Codolet, France)], were added.
The mixture was incubated in the dark for one hour at 22° C. and then overnight at 4° C. The formation of BCL-2/Bad complexes was determined by measuring the resonance energy transfer of the anti-His-Eu-cryptate antibody to the streptavidin-XL665 present in the reaction. For that purpose, the fluorescence emission at 620 nm and 665 nm after excitation at 330-350 nm was measured in a TR-FRET measuring instrument, for instance a Rubystar or a Pherastar (both from BMG Lab Technologies, Offenburg, Germany) or a Viewlux (Perkin-Elmer). The ratio of the emission at 665 nm and at 622 nm was used as indicator of the amount of BCL-2/Bad complexes present.
The resulting data (ratio) were normalized, taking 0% inhibition as the mean value of control measurements (usually 32 data points) where all reagents were included. In this case 50 nl DMSO were used instead of compounds. A 100% inhibition corresponded to the mean value of control measurements (usually 32 data points) where all reagents except BCL-2 were included. IC50 values were determined by regression analysis based on a 4 parameter equation (minimum, maximum, IC50, Hill; Y=Max+(Min−Max)/(1+(X/IC50)^Hill) using the Screener Software (Genedata).

[2] = system: MV-4-11; assay: Antiproliferation assay MV-4-11 (Assay 7); type: cell-based; conditions: MV-4-11 cells, CellTiter-Glo, single determinations, read-out: IC50 Antiproli MV-4-11
How it was run: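 Luminescent ATP-based viability (CellTiter-Glo) measured after 72 h of compound treatment at 37 °C. A day 0 plate recorded at time zero served as the starting reference for proliferation.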

[3] = molecular target: SUDHL5; assay: Induction of caspase-3/7 activity, SUDHL5 (Assay 4); type: cell-based; conditions: SUDHL5 cells
How it was run: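 DLBCL lines treated with compounds for 3 h at 37° C.; caspase-3/7 activity read by Caspase-Glo 3/7 luminescence. Medium-only background subtracted; EC50 fitted with bottom fixed at 1 and top set to reference compound's maximal induction.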

[4] = system: SUDHL5; assay: Induction of cytotoxicity, SUDHL5 (Assay 6); conditions: read-out: IC50 Cytotox SUDHL5 [M] (median), SUDHL5 cells, 5 h, CellTiter-Glo
Protocol: In principle, compounds that induce apoptosis will concomitantly induce cell cytotoxicity. Therefore, cytotoxicity assays were run in parallel in SUDHL5 and SUDHL10 cells.
The different cell lines were plated in culture medium (RPMI 1640 [GIBCO #22400-089] supplemented with 10% Fetal Bovine Serum) at a density of 3,300 cells in 30 μl/well in a sterile, solid black, flat bottom, polystyrene, TC-treated 384-well microplate (Corning #3571) using Multidrop Combi Reagent Dispenser. As a control, medium without cells was also added to the plate. Cells were incubated in a humidified incubator at 37° C. overnight. On the next day, the cells were treated with compounds (stock solution, 10 mM in DMSO) using the HP D300 Digital Dispenser in a concentration range of 3.3×10e-5 M (33 μM) to 5×10e-9 M (5 nM) in a single-dot curve with at least 16 dilutions and a DMSO concentration of 0.33%. Rim wells were excluded. The cells were incubated for 5 h hours in a humidified incubator at 37° C. After this incubation, 30 μl of CellTiter-Glo® Luminescent Cell Viability reagent (Promega, G7573) was added to each well using the Multidrop Combi Reagent Dispenser, followed by 15 min incubation on a shaker at room temperature. Finally, luminescence was read at 0.1 ms, with a gain of 3000 using the PHERAstar FS microplate reader (BMG Labtech).
The Bella DRC Master Sheet was used to calculate IC50s, with fixed CI=0 and C0=1.

[5] = Homo sapiens, SU-DHL-5, 3 h, Caspase-Glo 3/7, median

Row | Compound | IC50 [1] | IC50 ([2]; 72 h) | EC50 ([3]; 3 h, Caspase-Glo 3/7, median) | IC50 ([2]; Homo sapiens, MV4-11, 72 h) | EC50 [3, 5] | IC50 ([4]; Homo sapiens, SU-DHL-5, 5 h) | IC50 [4]
1 | (rac)-1-(3-((2,3-dihydro-1H-inden-4-yl)oxy)propyl)-12-ethyl-13-fluoro-11-methyl-4,5,6,7,9,11-hexahydropyrazolo[4′,3′:9,10][1]oxa[6]azacycloundecino[8,7,6-hi]indole-2-carboxylic acid [Example 30] | > 20 µM | 1.77 µM and 3.04 µM | 0.87 µM |  |  |  | 
2 | Cc1nn(C)c2c1-c1c(F)ccc3c(CCCOc4cccc5ccccc45)c(C(=O)O)n(c13)CCCCOC2 (racemic) [Example 10, (rac)-13-fluoro-10,12-dimethyl-1-(3-(naphthalen-1-yloxy)propyl)-4,5,6,7,9,10-hexahydro-pyrazolo[4′,3′:9,10][1]oxa[6]azacycloundecino[8,7,6-hi]indole-2-carboxylic acid] | > 20 µM | 4.39 µM |  | 6.53 µM | 1.7 µM | 1.8e-06 M | 
3 | Cc1c2c(nn1C)COCCCCn1c(C(=O)O)c(CCCOc3ccc(F)c4ccccc34)c3ccc(F)c-2c31 (single isomer, unassigned; enantiomer 1) [Example 16, 4-fluoro-7-{3-[(4-fluoronaphthalen-1-yl)oxy]propyl}-2,3-dimethyl-2,10,11,12,13,15-hexahydro-pyrazolo[4′,3′:9,10][1,6]oxazacycloundecino[8,7,6-hi]indole-8-carboxylic acid (enantiomer 1)] | > 20 µM | 3.55 µM | 0.72 µM |  |  |  | 1.4e-06 M
4 | CCc1nn(C)c2c1-c1c(F)ccc3c(CCCOc4cccc5ccccc45)c(C(=O)O)n(c13)C/C=C\COC2 (racemic) [Example 11, (rac)-(Z)-12-ethyl-13-fluoro-10-methyl-1-(3-(naphthalen-1-yloxy)propyl)-4,7,9,10-tetrahydro-pyrazolo[4′,3′:9,10][1]oxa[6]azacycloundecino[8,7,6-hi]indole-2-carboxylic acid] | > 20 µM | 12.8 µM |  | 7.67 µM | 2.1 µM | 2.3e-06 M | 
5 | CCc1nn(C)c2c1-c1c(F)ccc3c(CCCOc4cccc5c4CCCC5)c(C(=O)O)n(c13)CCCCOC2 (racemic) [Example 44, (rac)-12-ethyl-13-fluoro-10-methyl-1-(3-((5,6,7,8-tetrahydronaphthalen-1-yl)oxy)propyl)-4,5,6,7,9,10-hexahydropyrazolo[4′,3′:9,10][1]oxa[6]azacycloundecino[8,7,6-hi]indole-2-carboxylic acid] | > 20 µM |  |  | 9.83 µM | 1.6 µM | 1.9e-06 M | 
6 | CCc1c2c(nn1C)COC/C=C\Cn1c(C(=O)O)c(CCCOc3cccc4ccccc34)c3ccc(F)c-2c31 (racemic) [Example 5, (rac)-(11Z)-3-ethyl-4-fluoro-2-methyl-7-[3-(naphthalen-1-yloxy)propyl]-2,10,13,15-tetrahydro-pyrazolo[4′,3′:9,10][1,6]oxazacycloundecino[8,7,6-hi]indole-8-carboxylic acid] | > 20 µM |  |  |  | 1 µM | 1.5e-06 M | 
7 | Cc1c2c(nn1C)CNCCCCn1c(C(=O)O)c(CCCOc3cccc4ccccc34)c3ccc(F)c-2c31 (single isomer, unassigned; enantiomer 1) [Example 48, 4-fluoro-2,3-dimethyl-7-{3-[(naphthalen-1-yl)oxy]propyl}-10,11,12,13,14,15-hexahydro-2H-pyrazolo[3′,4′:8,9][1,6]diazacycloundecino[10,11,1-hi]indole-8-carboxylic acid (enantiomer 1)] | > 20 µM |  | 1.2 µM |  |  |  | 1.3e-06 M

More lines, main results first:

Row | IC50 [1] | IC50 ([2]; 72 h) | EC50 ([3]; 3 h, Caspase-Glo 3/7, median) | IC50 ([2]; Homo sapiens, MV4-11, 72 h) | EC50 [3, 5] | Compound | IC50 ([4]; Homo sapiens, SU-DHL-5, 5 h) | IC50 [4]
8 | > 20 µM | 6.8 µM and 7.54 µM |  | 8.4 µM | 1.7 µM | CCc1nn(C)c2c1-c1c(F)ccc3c(CCCOc4cccc5ccccc45)c(C(=O)O)n(c13)CCCCOC2 (racemic) [Example 37, (rac)-12-ethyl-13-fluoro-10-methyl-1-(3-(naphthalen-1-yloxy)propyl)-4,5,6,7,9,10-hexahydro-pyrazolo[4′,3′:9,10][1]oxa[6]azacycloundecino[8,7,6-hi]indole-2-carboxylic acid] | 2.1e-06 M | 
9 | > 20 µM |  |  | 11.2 µM | 2.9 µM | Cc1nn(C)c2c1-c1c(F)ccc3c(CCCOc4ccc(F)c5ccccc45)c(C(=O)O)n(c13)CCCCOC2 (racemic) [Example 33, (rac)-13-fluoro-1-(3-((4-fluoronaphthalen-1-yl)oxy)propyl)-10,12-dimethyl-4,5,6,7,9,10-hexahydropyrazolo[4′,3′:9,10][1]oxa[6]azacycloundecino[8,7,6-hi]indole-2-carboxylic acid] | 3.5e-06 M | 
10 | > 20 µM | 2.9 µM and 4.9 µM |  | 4.3 µM | 0.96 µM | Cc1c2c(nn1C)COCCCCn1c(C(=O)O)c(CCCOc3cccc4c3CCC4)c3ccc(F)c-2c31 (racemic) [Example 19, (rac)-1-(3-((2,3-dihydro-1H-inden-4-yl)oxy)propyl)-13-fluoro-11,12-dimethyl-4,5,6,7,9,11-hexahydropyrazolo[4′,3′:9,10][1]oxa[6]azacycloundecino[8,7,6-hi]indole-2-carboxylic acid] | 1.4e-06 M | 
11 | > 20 µM |  |  | 16.4 µM | 3.5 µM | Cc1cc(OCCCc2c(C(=O)O)n3c4c(c(F)ccc24)-c2c(C)nn(C)c2COCCCC3)cc(C)c1Cl (racemic) [Example 36, (rac)-1-(3-(4-chloro-3,5-dimethylphenoxy)propyl)-13-fluoro-10,12-dimethyl-4,5,6,7,9,10-hexahydropyrazolo[4′,3′:9,10][1]oxa[6]azacycloundecino[8,7,6-hi]indole-2-carboxylic acid] | 4.3e-06 M | 
12 | > 20 µM | 4.8 µM and 4.75 µM |  | 4.85 µM | 0.8 µM | Cc1nn(C)c2c1-c1c(F)ccc3c(CCCOc4cccc5cc(F)ccc45)c(C(=O)O)n(c13)CCCCOC2 (racemic) [Example 32, (rac)-13-fluoro-1-(3-((6-fluoronaphthalen-1-yl)oxy)propyl)-10,12-dimethyl-4,5,6,7,9,10-hexahydropyrazolo[4′,3′:9,10][1]oxa[6]azacycloundecino[8,7,6-hi]indole-2-carboxylic acid] | 1.1e-06 M | 
13 | > 20 µM |  |  |  | 0.23 µM | CCc1c2c(nn1C)CN(C)CCCCn1c(C(=O)O)c(CCCOc3cccc4c3CCC4)c3ccc(F)c-2c31 (racemic) [Example 51, (rac)-7-[3-(2,3-dihydro-1H-inden-4-yloxy)propyl]-3-ethyl-4-fluoro-2,14-dimethyl-10,11,12,13,14,15-hexahydro-2H-pyrazolo[3′,4′:8,9][1,6]diazacycloundecino[10,11,1-hi]indole-8-carboxylic acid] | 3.6e-07 M | 
